Results from US8822407B2, “Preparation of conjugates comprising adenine derivatives and allergenic proteins and their use for specific immunotherapy of allengenic diseases” (Universita' Degli Studi di Firenze, priority 2010, dated 2014).

Tests used:
purified CD14+ cells = assay: Cytokine production by purified CD14+ cells (ELISA of supernatants, 36 hrs); assay type: cell-based, human; conditions: Table B, dose 2 μg/ml
Description: Circulating mononuclear cells (MNC) are isolated by density gradient (Ficoll-Hypaque) using buffy coats from 14 normal donors (Servizio Immunotrasfusionale e terapie cellulari, Azienda Ospedaliera Universitaria A. Meyer, Firenze). 200×10^6 MNC are separated by the use of a commercial kit (CD14 isolation kit, Miltenyi) by the addition of 400 μl anti-CD14 monoclonal antibody bound to iron beads followed by isolation on magnetic columns (LS column). 50×10^6 monocytes are recovered by positive selection and are extensively washed with calcium and magnesium-free sterile PBS and then seeded in complete medium plus 10% foetal calf serum in 24 flat bottomed plates at the concentration of 1×10^6/ml. […] The plates are incubated for 36 hrs at 37° C. in 5% CO2 humidified atmosphere and the supernatants are collected after centrifugation at 1200 rpm, aliquoted and then stored at −20° C. up to the assay. […]
(§1) For the determination of cytokines and chemokines of the innate immunity, commercial ELISAs have been used: IL-12p40 (Cytoscreen, Biosource Int, Camarillo, Calif.), IFN-alfa (Cytoscreen), TNF-alfa (Cytoscreen), IL-10 (Pharmingen), IL-6 and CXCL10 (R&D System). 100 μl/well of single supernatants are incubated in flat bottomed plates as specified by the productors and the amounts of the single cytokines are expressed as pg/ml on the basis of a reference curve by using recombinant cytokines.

purified BDCA4+ cells = assay: Cytokine production by purified BDCA4+ cells (plasmacytoid dendritic cells), ELISA; assay type: cell-based, human
Description: The preparation of purified BDCA4+ cells has been obtained in a similar way starting from MNC of buffy coats of the same 14 healthy donors. […] By positive selection 5×10^6 plasmacytoid dendritic cells (PDCs) are recovered, extensively washed with calcium and magnesium-free sterile PBS and seeded in complete medium plus 10% foetal calf serum in 24-flat bottomed plates at the concentration 1×10^6/ml. […] The plates are incubated for 36 hrs at 37° C. in 5% CO2 humidified atmosphere and the supernatants are collected after centrifugation at 1200 rpm, aliquoted and then stored at −20° C. up to the assay. […]
as §1

human TLR7 = target: T1, human TLR7 (Homo sapiens, UniProt Q9NYK1); assay: TLR7 activation, NF-kB luciferase reporter in transfected HEK293 cells; assay type: cell-based; conditions: human TLR7-encoding plasmid
T1 construct: expressed in transfected cells; host or cells: HEK293 (transient Nucleofection, Amaxa)
T1 sequence (Q9NYK1 27-1049): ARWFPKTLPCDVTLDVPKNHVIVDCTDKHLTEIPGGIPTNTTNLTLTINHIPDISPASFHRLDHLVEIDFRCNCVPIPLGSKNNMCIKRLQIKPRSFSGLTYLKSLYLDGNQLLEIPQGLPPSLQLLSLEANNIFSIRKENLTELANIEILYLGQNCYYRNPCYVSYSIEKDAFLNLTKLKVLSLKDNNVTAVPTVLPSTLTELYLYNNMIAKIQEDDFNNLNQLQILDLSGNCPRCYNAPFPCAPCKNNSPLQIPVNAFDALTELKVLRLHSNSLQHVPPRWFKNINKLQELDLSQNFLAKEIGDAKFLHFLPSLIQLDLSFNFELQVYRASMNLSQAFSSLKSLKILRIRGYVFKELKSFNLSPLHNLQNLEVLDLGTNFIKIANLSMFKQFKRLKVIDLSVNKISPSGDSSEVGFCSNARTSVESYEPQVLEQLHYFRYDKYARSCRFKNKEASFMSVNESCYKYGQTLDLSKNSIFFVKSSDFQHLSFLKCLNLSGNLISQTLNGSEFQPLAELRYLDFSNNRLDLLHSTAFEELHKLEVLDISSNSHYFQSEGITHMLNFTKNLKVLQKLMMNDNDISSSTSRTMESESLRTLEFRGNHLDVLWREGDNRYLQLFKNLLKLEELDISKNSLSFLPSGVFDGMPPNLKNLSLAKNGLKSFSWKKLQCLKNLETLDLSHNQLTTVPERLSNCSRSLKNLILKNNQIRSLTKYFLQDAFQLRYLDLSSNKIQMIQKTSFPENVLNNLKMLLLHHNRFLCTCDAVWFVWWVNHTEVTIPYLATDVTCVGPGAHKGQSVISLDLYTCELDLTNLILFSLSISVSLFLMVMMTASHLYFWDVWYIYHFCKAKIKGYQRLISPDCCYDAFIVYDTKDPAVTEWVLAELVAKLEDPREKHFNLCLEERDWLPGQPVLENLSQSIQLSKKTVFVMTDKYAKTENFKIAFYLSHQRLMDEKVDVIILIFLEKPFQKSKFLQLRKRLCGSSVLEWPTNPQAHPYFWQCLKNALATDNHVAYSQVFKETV
Description: HEK293 cells are detached by trypsin from the plastic surface of the culture bottle, extensively washed with calcium and magnesium-free PBS, counted and adjusted at the concentration 1×10^6 cells/tube in polypropylene V-bottomed tubes. After the final wash, the cells are pelleted and 100 μl transfection buffer (Amaxa) is added together with […], TLR7, TLR8 or TLR9-encoding and ELAM-1 promoter NF-kB luciferase reporter plasmids. The mixture thus obtained is transferred in special cuvettes and transient transfection is obtained in a special apparatus which is able to directly introduce genetic material into the nucleus (Nucleofection®, Amaxa GmbH). The cells are then recovered and cultured at 1×10^5/ml in 48-flat bottomed plates in E-MEM medium plus 5% foetal calf serum for 18 hrs. […] Finally the luciferase activity is measured in the cellular lysates by a commercial kit (Promega).

[1] = Table C, Donor #1, R-848, dose not printed in table (2 μg/ml elsewhere in the source)
[2] = Table C, Donor #2, R-848 (2 μg/ml)
[3] = Table F, Donor #1, dose 2 μg/ml
[4] = Table F, Donor #2, dose 2 μg/ml

In the case of `CCOCc1nc2c(N)nc3ccccc3c2n1CC(C)(C)O` [Conj R-848, reference compound], the “IL-6 production (mean ± SE)” value (purified CD14+ cells) is reported as 45.8 ± 15.2 ng/mL, the “IL-10 production (mean ± SE)” value (purified CD14+ cells) is reported as 2.0 ± 0.5 ng/mL and the “IL-12p40 production (mean ± SE)” value (purified CD14+ cells) is reported as 16.9 ± 6.3 ng/mL. For the same molecule, the “TNF-alfa production (mean ± SE)” value (purified CD14+ cells) was 16.3 ± 4.9 ng/mL, the IFN-alfa production (purified BDCA4+ cells; [1]) was 3154 pg/mL and the IL-6 production (purified BDCA4+ cells; [1]) was 746 pg/mL. It also gave an IL-10 production (purified BDCA4+ cells; [1]) of 1500 pg/mL, a TNF-alfa production (purified BDCA4+ cells; [1]) of 10368 pg/mL and an IFN-alfa production (purified BDCA4+ cells; [2]) of 6187 pg/mL. It also gave an IL-6 production (purified BDCA4+ cells; [2]) of 308 pg/mL, an IL-10 production (purified BDCA4+ cells; [2]) of 753 pg/mL and a TNF-alfa production (purified BDCA4+ cells; [2]) of 20990 pg/mL. The “IFN-alfa production (mean ± SE)” value (purified BDCA4+ cells; Table D, dose 2 μg/ml) was 5.6 ± 2.5 ng/mL, the “IL-6 production (mean ± SE)” value (purified BDCA4+ cells; Table D, dose 2 μg/ml) was 7.7 ± 2.6 ng/mL and the “IL-10 production (mean ± SE)” value (purified BDCA4+ cells; Table D, dose 2 μg/ml) was 1.0 ± 0.6 ng/mL. For the same molecule, the “TNF-alfa production (mean ± SE)” value (purified BDCA4+ cells; Table D, dose 2 μg/ml) was 5.4 ± 1.4 ng/mL, the IFN-alfa production (purified BDCA4+ cells; [3]) was 1131 pg/mL and the IL-6 production (purified BDCA4+ cells; [3]) was 44302 pg/mL. The IL-10 production (purified BDCA4+ cells; [3]) was 1864 pg/mL, the TNF-alfa production (purified BDCA4+ cells; [3]) was 4832 pg/mL and the IFN-alfa production (purified BDCA4+ cells; [4]) was 1605 pg/mL. It also gave an IL-6 production (purified BDCA4+ cells; [4]) of 37603 pg/mL, an IL-10 production (purified BDCA4+ cells; [4]) of 1305 pg/mL and a TNF-alfa production (purified BDCA4+ cells; [4]) of 6898 pg/mL. For the same molecule, the “cytokine production from BDCA4+ cells (in words)” value (purified BDCA4+ cells; text to Tables C and D) was “high levels of IFN-alfa, IL-10 and CXCL10” and the “TLR7 activation (NF-κB luciferase) in transfected HEK293 cells” value (human TLR7) was “able to induce NF-κB expression”.
